# Data from patent US8420657B2 (Novartis AG, priority 2008, dated 2013).
# Legend:
# [1] = test system: JAK2-dependent nuclear translocation of STAT5-GFP in U-2 OS osteosarcoma cells; experiment: STAT5 nuclear translocation assay (Cellomics), rhEpo stimulated U-2 OS STAT5-GFP cells; type: cell-based; conditions: Homo sapiens, U2OS; STAT5 translocation pathway
# Excerpt: The medium-throughput (96-well format) cellular automated fluorescence microscopy Cellomics assay can be routinely used to assess the functional activation of Janus Kinases (JAKs), based on the nuclear translocation of their substrate, Signal Transducer and Activator of Transcription (STAT). Nuclear translocation can be monitored either in HT1080 fibrosarcoma cells stably transfected with STAT1 fused to Green Fluorescence Protein (GFP) or in U-2 OS osteosarcoma cells stably transfected with STAT5 fused to Green Fluorescence Protein (GFP). Stimulation of HT1080 cells with interferon-γ (IFN-γ) results in JAK1/JAK2-dependent nuclear translocation of STAT1-GFP, whereas stimulation of U-2 OS cells with recombinant human erythropoietin (rhEpo) results in JAK2-dependent nuclear translocation of STAT5-GFP, both of which can be quantified using the Cellomics Cyto/NucTrans software package. This assay may be used to provide an assessment of the nuclear-cytoplasmic differential (NCD) of STAT-GFP using Hoechst dye to define the boundaries of the nucleus.
# U-2 OS osteosarcoma cells may be obtained from ATCC and can be cultured in standard RPMI medium supplemented with 10% FCS and 2 mM L-glutamine. Cells can be stably transfected with STAT5a-GFP using Lipofectamine following the manufacturers' protocol. 24 hours after transfection the medium can be replaced and selected in 400 μg/ml Geneticin. Subsequently, cells can be stably transfected with EpoR using Lipofectamine following the manufacturers' protocol. 24 hours after transfection the medium can be replaced and cells selected in 100 μg/ml Hygromycin B.
# Compounds can be dissolved in DMSO to a final stock concentration of 10 mM and stored as aliquots at 4° C. Compounds may be pre-diluted in 100% DMSO at 10 mM, 3 mM 1 mM, 0.3 mM, 0.1 mM, 0.03 mM, 0.01 mM and 0.003 mM. Subsequently, compounds may be diluted in medium and added in 50 μl to the cells. The final compound concentrations tested may be 10 μM, 3 μM 1 μM, 0.3 μM, 0.1 μM, 0.03 μM, 0.01 μM and 0.003 μM and the final DMSO concentration can be 0.1%.
# U-2 OS may be seeded at a cell density of 12,000 cells per well in clear-bottom black 96-well Packard View-Plates™. The following day, medium can be removed and replaced with medium containing either the vehicle (DMSO) or increasing concentrations of test compounds for 30 minutes at 37° C. Cells can then be stimulated for 1 hour by adding 10 μl per well of 50 U/ml rhEpo to obtain 5 U/ml of rhEpo as the final concentration. Following treatments, cells can fixed and processed as described above.
# The plates can be read on a Cellomics® ArrayscanII automated fluorescence microscope plate reader equipped with a Mercury-Xenon white light illumination source and a Zeiss Axiovert inverted microscope, using the XF100 dichroic/emission filter cube and matching excitation filters, 10× magnification, and a 0.3 numerical aperture objective. Image acquisition and analysis can be performed using a customized protocol based on the ‘NuclearTranslocation’ Bioapplication. For each well, multiple images (fields) can be acquired until a minimum of 1000 cells are counted using two 2 channels: Channel 1 (Hoechst)=focus+nuclear mask, Channel 2 (GFP)=signal quantification in mask areas as outlined below. Nuclei may be first identified based on the Hoechst staining and a mask generated for each nucleus that then serves as a template to generate a circle (eroded inwards by 1 pixel) and a 3 pixel-wide collar-like ring (off-set outwards by 1 pixel), in which the nuclear and cytoplasmic intensity of GFP, respectively, are quantified in the corresponding channel. High content analysis yields numerous measurements per cell and the GFP intensity differential between the nuclear and the cytoplasmic masks may be chosen as a measure of sub-cellular STAT-GFP relocation. The resulting values may be averaged for all cells in the well to return a single measurement plus standard deviation. […]
# [2] = molecular target: T1, GST-JAK2(808-1132) (Homo sapiens, UniProt O60674); experiment: JAK2 kinase assay (Caliper mobility shift, LabChip 3000); type: biochemical
# T1 construct: GST-JAK2(808-1132); purchased Invitrogen (Carlsbad, USA) #4288
# Procedure, shortened: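 Eight-point compound series (final 10–0.003 μM) tested on purchased GST-JAK2 kinase domain (808-1132). Peptide FITC-JAK3tide plus ATP reacted 60 min, 30 °C, then quenched with EDTA; turnover from charge-based separation of substrate and product.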
# T1 sequence (O60674 808-1132): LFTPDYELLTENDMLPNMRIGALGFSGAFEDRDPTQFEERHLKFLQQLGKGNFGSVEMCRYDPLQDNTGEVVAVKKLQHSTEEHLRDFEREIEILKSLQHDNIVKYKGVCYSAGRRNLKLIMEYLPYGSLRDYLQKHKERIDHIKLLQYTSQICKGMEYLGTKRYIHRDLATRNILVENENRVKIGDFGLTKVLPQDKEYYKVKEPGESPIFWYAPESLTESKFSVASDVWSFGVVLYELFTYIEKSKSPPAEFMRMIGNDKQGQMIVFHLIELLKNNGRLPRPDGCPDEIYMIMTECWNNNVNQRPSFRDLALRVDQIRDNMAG
SMILES,IC50 [1] [nM],IC50 [2] [nM]
"Cc1ccc(Nc2ncc3ccn(-c4ccc(S(=O)(=O)NC(C)(C)C)cc4)c3n2)cc1CN1CCNCC1 [Example 376, N-tert-Butyl-4-[2-(4-methyl-3-piperazin-1-ylmethyl-phenylamino)-pyrrolo[2,3-d]pyrimidin-7-yl]-benzenesulfonamide]",67,≤ 3
"CN1CCN(c2ccc(Nc3ncc4ccn(-c5cc(F)c(CN6CCOCC6)c(F)c5)c4n3)nc2)CC1 [Example 377, [7-(3,5-Difluoro-4-morpholin-4-ylmethyl-phenyl)-7H-pyrrolo[2,3-d]pyrimidin-2-yl]-[5-(4-methyl-piperazin-1-yl)-pyridin-2-yl]-amine]",> 2600,49
"O=C(c1ccc(-n2ccc3cnc(Nc4ccc(CC5CCNCC5)cc4)nc32)cc1F)N1CCOCC1 [Example 381, {2-Fluoro-4-[2-(4-piperidin-4-ylmethyl-phenylamino)-pyrrolo[2,3-d]pyrimidin-7-yl]-phenyl}-morpholin-4-yl-methanone]",43,≤ 3
"Cc1ccc(Nc2ncc3ccn(-c4cc(F)c(CN5CCOCC5)c(F)c4)c3n2)cc1CN1CCNC(C)(C)C1 [Example 385, [7-(3,5-Difluoro-4-morpholin-4-ylmethyl-phenyl)-7H-pyrrolo[2,3-d]pyrimidin-2-yl]-[3-(3,3-dimethyl-piperazin-1-ylmethyl)-4-methyl-phenyl]-amine]",65.5,≤ 3
"Cc1ccc(Nc2ncc3ccn(-c4ccc(C(=O)N5CCOCC5)c(F)c4)c3n2)cc1CN1CCNC(C)(C)C1 [Example 386, (4-{2-[3-(3,3-Dimethyl-piperazin-1-ylmethyl)-4-methyl-phenylamino]-pyrrolo[2,3-d]pyrimidin-7-yl}-2-fluoro-phenyl)-morpholin-4-yl-methanone]",101,110
"Cc1ccc(Nc2ncc3ccn(-c4ccc(S(=O)(=O)NC(C)(C)C)cc4)c3n2)cc1CN1C[C@@H](C)N[C@@H](C)C1 [Example 387, N-tert-Butyl-4-{2-[3-(cis-3,5-dimethyl-piperazin-1-ylmethyl)-4-methyl-phenylamino]-pyrrolo[2,3-d]pyrimidin-7-yl}-benzenesulfonamide]",45.5,9.6
"O=C(c1cc(Nc2ncc3ccn(-c4cc(F)c(CN5CCOCC5)c(F)c4)c3n2)ccn1)N1CCNCC1 [Example 390, {4-[7-(3,5-Difluoro-4-morpholin-4-ylmethyl-phenyl)-7H-pyrrolo[2,3-d]pyrimidin-2-ylamino]-pyridin-2-yl}-piperazin-1-yl-methanone]",104,15
"C[C@@H]1CN(Cc2cc(Nc3ncc4ccn(-c5cc(F)c(CN6CCOCC6)c(F)c5)c4n3)ccn2)C[C@H](C)N1 [Example 391, [7-(3,5-Difluoro-4-morpholin-4-ylmethyl-phenyl)-7H-pyrrolo[2,3-d]pyrimidin-2-yl]-[2-(cis-3,5-dimethyl-piperazin-1-ylmethyl)-pyridin-4-yl]-amine]",150,4.9
"Fc1cc(-n2ccc3cnc(Nc4ccnc(OCC5CCNCC5)c4)nc32)cc(F)c1CN1CCOCC1 [Example 392, [7-(3,5-Difluoro-4-morpholin-4-ylmethyl-phenyl)-7H-pyrrolo[2,3-d]pyrimidin-2-yl]-[2-(piperidin-4-ylmethoxy)-pyridin-4-yl]-amine]",68,≤ 3
"Cc1ccc(Nc2ncc3ccn(-c4cc(F)c(CN5CCOCC5)c(F)c4)c3n2)cc1CN1CCC(F)(F)C1 [Example 393, [7-(3,5-Difluoro-4-morpholin-4-ylmethyl-phenyl)-7H-pyrrolo[2,3-d]pyrimidin-2-yl]-[3-(3,3-difluoro-pyrrolidin-1-ylmethyl)-4-methyl-phenyl]-amine]",52,13
"Cc1ccc(Nc2ncc3ccn(-c4cc(F)c(CN5CCOCC5)c(F)c4)c3n2)cc1CN1CCN(C)C(=O)C1 [Example 395, 4-{5-[7-(3,5-Difluoro-4-morpholin-4-ylmethyl-phenyl)-7H-pyrrolo[2,3-d]pyrimidin-2-ylamino]-2-methyl-benzyl}-1-methyl-piperazin-2-one]",17,≤ 3
"CN(C)CCN1CCN(Cc2cc(Nc3ncc4ccn(-c5cc(F)c(CN6CCOCC6)c(F)c5)c4n3)ccn2)CC1 [Example 396, [7-(3,5-Difluoro-4-morpholin-4-ylmethyl-phenyl)-7H-pyrrolo[2,3-d]pyrimidin-2-yl]-{2-[4-(2-dimethylamino-ethyl)-piperazin-1-ylmethyl]-pyridin-4-yl}-amine]",147,≤ 3
"Cc1ccc(Nc2ncc3ccn(-c4cc(F)c(CN5CCOCC5)c(F)c4)c3n2)cc1CN1CCN(CCN(C)C)CC1 [Example 398, [7-(3,5-Difluoro-4-morpholin-4-ylmethyl-phenyl)-7H-pyrrolo[2,3-d]pyrimidin-2-yl]-{3-[4-(2-dimethylamino-ethyl)-piperazin-1-ylmethyl]-4-methyl-phenyl}-amine]",245,≤ 3

# The next molecules have a lower IC50 [1] than those just listed; values first:
IC50 [1] [nM],IC50 [2] [nM],SMILES
7.7,6.5,"CC(C)S(=O)(=O)Nc1ccc(-n2ccc3cnc(Nc4ccc(N5C[C@@H](C)N[C@@H](C)C5)nc4)nc32)cc1 [Example 375, Propane-2-sulfonic acid (4-{2-[6-(cis-3,5-dimethyl-piperazin-1-yl)-pyridin-3-ylamino]-pyrrolo[2,3-d]pyrimidin-7-yl}-phenyl)-amide]"
6.1,5.1,"Fc1cc(-n2ccc3cnc(Nc4ccc(CC5CCNCC5)cc4)nc32)cc(F)c1CN1CCOCC1 [Example 383, [7-(3,5-Difluoro-4-morpholin-4-ylmethyl-phenyl)-7H-pyrrolo[2,3-d]pyrimidin-2-yl]-(4-piperidin-4-ylmethyl-phenyl)-amine]"
12,≤ 3,"CN1CCN(Cc2cc(Nc3ncc4ccn(-c5cc(F)c(CN6CCOCC6)c(F)c5)c4n3)ccn2)CC1 [Example 384, [7-(3,5-Difluoro-4-morpholin-4-ylmethyl-phenyl)-7H-pyrrolo[2,3-d]pyrimidin-2-yl]-[2-(4-methyl-piperazin-1-ylmethyl)-pyridin-4-yl]-amine]"
1.6,≤ 3,"Cc1ccc(Nc2ncc3ccn(-c4cc(F)c(CN5CCOCC5)c(F)c4)c3n2)cc1CN1CC(O)C1 [Example 394, 1-{5-[7-(3,5-Difluoro-4-morpholin-4-ylmethyl-phenyl)-7H-pyrrolo[2,3-d]pyrimidin-2-ylamino]-2-methyl-benzyl}-azetidin-3-ol]"
13,≤ 3,"CN1CCN(Cc2cc(Nc3ncc4ccn(-c5cc(F)c(CN6CCOCC6)c(F)c5)c4n3)ccn2)CC1=O [Example 397, 4-{4-[7-(3,5-Difluoro-4-morpholin-4-ylmethyl-phenyl)-7H-pyrrolo[2,3-d]pyrimidin-2-ylamino]-pyridin-2-ylmethyl}-1-methyl-piperazin-2-one]"
6.6,≤ 3,"Cc1ccc(Nc2ncc3ccn(-c4cc(F)c(CN5CCOCC5)c(F)c4)c3n2)cc1CN1CCNCC1=O [Example 399, 1-{5-[7-(3,5-Difluoro-4-morpholin-4-ylmethyl-phenyl)-7H-pyrrolo[2,3-d]pyrimidin-2-ylamino]-2-methyl-benzyl}-piperazin-2-one]"
